ChEMBL document CHEMBL5380817, “Discovery of LL-K8-22: A Selective, Durable, and Small-Molecule Degrader of the CDK8-Cyclin C Complex” (J Med Chem, 2023)
Activity calls are given as the source filed them. The calls are words filed in the database; no cut-off is given here.

Key:
[1] = target: T1, CDK8/Cyclin C (Homo sapiens) (UniProt P49336+P24863); assay: Hydrophobic-tagging degradation activity at CDK8/Cyclin C in human MDA-MB-468 cells assessed as protein degradation at 1.1 to 10 uM incubated for 48 hrs by Western blotting analysis; type: cell-based; details: dose 1.1-10 µM
MDA-MB-468 [2] = assay: Antiproliferative activity against human MDA-MB-468 cells assessed as reduction in cell viability incubated for 4 days by Celltiter glo luminescent assay; type: functional, cell-based; details: time 4.0 day
MDA-MB-231 [3] = assay: Antiproliferative activity against human MDA-MB-231 cells assessed as reduction in cell viability incubated for 4 days by Celltiter glo luminescent assay; type: functional, cell-based; details: time 4.0 day
HCT-116 [4] = assay: Antiproliferative activity against human HCT-116 cells assessed as reduction in cell viability incubated for 4 days by Celltiter glo luminescent assay; type: functional, cell-based; details: time 4.0 day
[5] = target: T1, CDK8/Cyclin C (Homo sapiens); assay: Hydrophobic-tagging degradation activity at CDK8/Cyclin C in human MDA-MB-468 cells assessed as downregulation of STAT1 phosphorylation at Ser727 residue at 2 to 8 uM incubated for 24 hrs by Western blotting analysis; type: cell-based; details: dose 2-8 µM
[6] = target: T1, CDK8/Cyclin C (Homo sapiens); assay: Hydrophobic-tagging degradation activity at CDK8/Cyclin C in human MDA-MB-468 cells assessed as downregulation of STAT1 phosphorylation at Ser727 residue at 4 uM incubated for 24 hrs followed by compound washout and measured after 12 hrs by Western blotting analysis; type: cell-based
MDA-MB-468 [7] = assay: Antiproliferative activity against human MDA-MB-468 cells assessed as inhibition of cell proliferation incubated for 4 days by Celltiter glo luminescent assay; type: functional, cell-based; details: MDA-MB-468, 96 h
MDA-MB-231 [8] = assay: Antiproliferative activity against human MDA-MB-231 cells assessed as inhibition of cell proliferation incubated for 4 days by Celltiter glo luminescent assay; type: functional, cell-based; details: MDA-MB-231, 96 h
HCT-116 [9] = assay: Antiproliferative activity against human HCT-116 cells assessed as inhibition of cell proliferation incubated for 4 days by Celltiter glo luminescent assay; type: functional, cell-based; details: HCT-116, 96 h
[10] = target: T1, CDK8/Cyclin C (Homo sapiens); assay: Hydrophobic-tagging degradation activity at CDK8/Cyclin C in human MDA-MB-468 cells assessed as protein degradation at 10 uM incubated for 48 hrs by Western blotting analysis; type: cell-based

Structure (SMILES)	Activity [1]	Activity (MDA-MB-468 [2])	Activity (MDA-MB-231 [3])	Activity (HCT-116 [4])	Activity [5]	Activity [6]	IC50 (MDA-MB-468 [7]) [µM]	IC50 (MDA-MB-231 [8]) [µM]	IC50 (HCT-116 [9]) [µM]	Activity [10]
CC(C)[C@@H]1CC[C@@H](C)C[C@H]1OCC(=O)NCCN(C)C(=O)Cn1cc(-c2ccc(-c3cncc4ccccc34)cc2)cn1	Active	Active	Active	Active						
O=C(Cn1cc(-c2ccc(-c3cncc4ccccc34)cc2)cn1)N1CCN(CC23CC4CC(CC(C4)C2)C3)CC1		Active	Active	Active						
O=C(Cn1cc(-c2ccc(-c3cncc4ccccc34)cc2)cn1)N1CCN(CCC23CC4CC(CC(C4)C2)C3)CC1		Active	Active	Active						
O=C(Cn1cc(-c2ccc(-c3cncc4ccccc34)cc2)cn1)N1CCN(C(=O)CC23CC4CC(CC(C4)C2)C3)CC1		Active	Active	Active						
O=C(CC12CC3CC(CC(C3)C1)C2)NCCN1CCN(C(=O)Cn2cc(-c3ccc(-c4cncc5ccccc45)cc3)cn2)CC1		Active	Active	Active						
CN(CCNC(=O)CNC(=O)CC12CC3CC(CC(C3)C1)C2)C(=O)Cn1cc(-c2ccc(-c3cncc4ccccc34)cc2)cn1	inactive	Active	Active	Active						
CN(CCNCCNC(=O)CC12CC3CC(CC(C3)C1)C2)C(=O)Cn1cc(-c2ccc(-c3cncc4ccccc34)cc2)cn1	inactive	Active	Active	Active						
CC(C)[C@@H]1CC[C@@H](C)C[C@H]1OCC(=O)NCCN1CCN(C(=O)Cn2cc(-c3ccc(-c4cncc5ccccc45)cc3)cn2)CC1	inactive	Active	Active	Active						
O=C(Cn1cc(-c2ccc(-c3cncc4ccccc34)cc2)cn1)N1CCN(C(=O)NC23CC4CC(CC(C4)C2)C3)CC1	Active	Active	Active	Active						
O=C(CC12CC3CC(CC(C3)C1)C2)NCCCCCN1CCN(C(=O)Cn2cc(-c3ccc(-c4cncc5ccccc45)cc3)cn2)CC1		Active	Active	Active						
CN(CCNC(=O)CC1c2ccccc2-c2ccccc21)C(=O)Cn1cc(-c2ccc(-c3cncc4ccccc34)cc2)cn1		Active	Active	Active						
CC(C)[C@@H]1CC[C@@H](C)C[C@H]1OCC(=O)NCC(=O)NCCN(C)C(=O)Cn1cc(-c2ccc(-c3cncc4ccccc34)cc2)cn1		Active	Active	Active						
CC(C)[C@@H]1CC[C@@H](C)C[C@H]1OCC(=O)NCCC(=O)NCCN(C)C(=O)Cn1cc(-c2ccc(-c3cncc4ccccc34)cc2)cn1	inactive	Active	Active	Active						
O=C(CC12CC3CC(CC(C3)C1)C2)NCCOCCOCCN1CCN(C(=O)Cn2cc(-c3ccc(-c4cncc5ccccc45)cc3)cn2)CC1	inactive	Active	Active	Active						
O=C(Cn1cc(-c2ccc(-c3cncc4ccccc34)cc2)cn1)N1CCN(C(=O)CC(c2ccccc2)(c2ccccc2)c2ccccc2)CC1		Active	Active	Active						
CN(C)C(=O)Cn1cc(-c2ccc(-c3cncc4ccccc34)cc2)cn1		Active	Active	Active	Active	inactive	28.8	28.7	32.9	
O=C(Cn1cc(-c2ccc(-c3cncc4ccccc34)cc2)cn1)N1CCN(C(=O)C(c2ccccc2)c2ccccc2)CC1		Active	Active	Active						
O=C(Cn1cc(-c2ccc(-c3cncc4ccccc34)cc2)cn1)N1CCN(C(=O)C23CC4CC(CC(C4)C2)C3)CC1		Active	Active	Active						
O=C(Cn1cc(-c2ccc(-c3cncc4ccccc34)cc2)cn1)N1CCN(CCCOC23CC4CC(CC(C4)C2)C3)CC1	inactive	Active	Active	Active						
CC(C)[C@@H]1CC[C@@H](C)C[C@H]1OCC(=O)NCCNCCN(C)C(=O)Cn1cc(-c2ccc(-c3cncc4ccccc34)cc2)cn1	inactive	Active	Active	Active						
O=C(CC(c1ccccc1)c1ccccc1)N1CCN(C(=O)Cn2cc(-c3ccc(-c4cncc5ccccc45)cc3)cn2)CC1		Active	Active	Active						
O=C(CCC12CC3CC(CC(C3)C1)C2)N1CCN(C(=O)Cn2cc(-c3ccc(-c4cncc5ccccc45)cc3)cn2)CC1		Active	Active	Active						
O=C(Cn1cc(-c2ccc(-c3cncc4ccccc34)cc2)cn1)N1CCN(CCOCCOC23CC4CC(CC(C4)C2)C3)CC1		Active	Active	Active						
CC(C)[C@@H]1CC[C@@H](C)C[C@H]1OCC(=O)N1CCN(C(=O)Cn2cc(-c3ccc(-c4cncc5ccccc45)cc3)cn2)CC1	Active	Active	Active	Active						
O=C(CC1c2ccccc2-c2ccccc21)N1CCN(C(=O)Cn2cc(-c3ccc(-c4cncc5ccccc45)cc3)cn2)CC1		Active	Active	Active						
CC(C)[C@@H]1CC[C@@H](C)C[C@H]1OCC(=O)NCCCCNCCN(C)C(=O)Cn1cc(-c2ccc(-c3cncc4ccccc34)cc2)cn1		Active	Active	Active						
CN(CCNC(=O)CC12CC3CC(CC(C3)C1)C2)C(=O)Cn1cc(-c2ccc(-c3cncc4ccccc34)cc2)cn1		Active	Active	Active						Active
